Key:
H9 ESC = assay: Gene expression profiling of ES-MSC relative to undifferentiated ESC; assay type: cell-based, human
Experimental: An overview of the differentiation process is provided in FIG. 1, panel K. To create cell clusters or embryoid bodies of uniform size, ESCs were removed from CellStart culture using Accutase® for 2-5 minutes until single cells were observed. Cells (2.5-3×10^5 cells per ml) were suspended in StemPro human ESC serum free medium (ThermoFisher) with 10 μM Y-27632 (EMD Chemicals, Gibbstown, NJ) and 40 ng/ml FGF (Life Technologies, Carlsbad, CA) in a 125 ml spinner culture flask (Corning Inc., Corning, NY) on a magnetic stirrer (CimarecTM Biosystem Slow-Speed Stirrer, ThermoFisher) at 70 rpm for 24 hours at 37° C. with 5% CO2 to form small cell clusters (minimum total cells was 7.5×10^6 in 30 ml). After 24 hours, the cell clusters were suspended at 2.5-3×10^5 cells per ml in ultra-low adherent 6 well plates (Corning) in […] free medium (ThermoFisher) supplemented with 2 mM L-glutamine (ThermoFisher Scientific), 50 μg/ml Ascorbic acid (Stemcell Technologies, Vancouver, Canada) and 1.8 μl/ml ITS-G (100× Insulin-Transferrin-Selenium; ThermoFisher); termed as “complete SP-34 medium”. […] Total RNA was extracted from using the RNeasy kit as recommended by the manufacturer (QIAGEN, Valencia, CA). The High-Capacity cDNA Reverse Transcription Kit (Applied Biosystems, Foster City, California) kit was used to make cDNA and the following verified primer/probe assays were purchased from Applied Biosystems. Expression of the following genes was quantified POU5F1/OCT4 and SOX2 (for pluripotency); FOXA1 and SOX17 (for endoderm); NES and PAX6 (for ectoderm); NKX2-5, MSX1, NCAM1, and SOX9 (for mesoderm); ITGB1/CD29 (for MSC phenotype); and COL1A1, COL2A1, COL10A1, COMP, ACAN, and SOX9 and RUNX2 (for chondrogenesis). Gene expression was normalized to GAPDH as previously reported. Undifferentiated ESC served as a baseline for relative changes in gene expression in differentiated ES-MSC cells. Differentiated ES-MSC cells in monolayer served as baseline for changes in gene expression in pellets or hydrogel constructs.

HADC100 ESC = assay: Gene expression of ES-MSC in monolayer culture; assay type: cell-based, human; settings: comparison of ALK5 inhibitors
Experimental: An overview of the differentiation process is provided in FIG. 1, panel K. To create cell clusters or embryoid bodies of uniform size, ESCs were removed from CellStart culture using Accutase® for 2-5 minutes until single cells were observed. Cells (2.5-3×10^5 cells per ml) were suspended in StemPro human ESC serum free medium (ThermoFisher) with 10 μM Y-27632 (EMD Chemicals, Gibbstown, NJ) and 40 ng/ml FGF (Life Technologies, Carlsbad, CA) in a 125 ml spinner culture flask (Corning Inc., Corning, NY) on a magnetic stirrer (CimarecTM Biosystem Slow-Speed Stirrer, ThermoFisher) at 70 rpm for 24 hours at 37° C. with 5% CO2 to form small cell clusters (minimum total cells was 7.5×10^6 in 30 ml). After 24 hours, the cell clusters were suspended at 2.5-3×10^5 cells per ml in ultra-low adherent 6 well plates (Corning) in […] free medium (ThermoFisher) supplemented with 2 mM L-glutamine (ThermoFisher Scientific), 50 μg/ml Ascorbic acid (Stemcell Technologies, Vancouver, Canada) and 1.8 μl/ml ITS-G (100× Insulin-Transferrin-Selenium; ThermoFisher); termed as “complete SP-34 medium”. […] Expression of the following genes was quantified POU5F1/OCT4 and SOX2 (for pluripotency); FOXA1 and SOX17 (for endoderm); NES and PAX6 (for ectoderm); NKX2-5, MSX1, NCAM1, and SOX9 (for mesoderm); ITGB1/CD29 (for MSC phenotype); and COL1A1, COL2A1, COL10A1, COMP, ACAN, and SOX9 and RUNX2 (for chondrogenesis). […]

[1] = ES-MSC relative to undifferentiated ESC

NC(=O)c1ccc(-c2nc(-c3ccc4c(c3)OCO4)c(-c3ccccn3)[nH]2)cc1 [SB431542]
expression of SOX9 and COL2A1 (chondroprogenitor phenotype) (H9 ESC; [1]): Increased expression
expression of mesoderm specific markers (NCAM1, MSX1, NKX2-5) and MSC marker (ITGB1) (H9 ESC; [1]): significantly upregulated
expression of pluripotent markers POU5F1 (OCT4) and SOX2 (H9 ESC; H9 ES-MSC relative to undifferentiated ESC): significantly down regulated
generating mesoderm markers (NCAM1, SOX9) and increasing COL2A1 expression (HADC100 ESC): superior

— patent publication US20260242738A1, “ALK5 INHIBITORS FOR EFFICIENT DERIVATION OF MESENCHYMAL STEM CELLS FROM EMBRYONIC STEM CELLS” (SCRIPPS HEALTH, priority 2022, published 2026)
